Test results reported in US20050064462A1, “Methods, compositions, and kits for predicting the effect of compounds on hot flash symptoms” (priority 2003, published 2005).
“Also recorded” adds a separate entry of the source.

Key:
Annexin 1 = experiment: Differential gene expression in a cell following contact with reference compounds: Annexin 1; type: cell-based; conditions: accession AI171962; cell expressing estrogen receptor or estrogen related receptor, after contact with compound
Text: (§1) The expression of any gene known by one of skill in the art to be associated with hot flash symptoms, without limitation, can be assessed in the methods of the invention. The present invention provides numerous such genes as described in detail, below. Further, additional genes that are associated with hot flash symptoms can readily be identified by one of skill in the art according to the disclosure of the present invention. For example, a cell that expresses the estrogen receptor or estrogen related receptor can be contacted with a reference compound known to affect hot flash symptoms. The overall expression of genes in the cell following contact with the reference compound can be compared to the overall expression of genes in a similar cell that has not been contacted with the reference compound.
(§2) The expression of such genes to identify genes that are differentially expressed following contact with a compound with a known effect on hot flash symptoms can be monitored by any convenient method known by one of skill in the art. Most advantageously, the expression of many genes, e.g., thousands of genes, is monitored at once using a high throughput method for assessing expression of genes in the presence and absence of compounds known to affect hot flash symptoms. […]

Protein Kinase C type I = experiment: Differential gene expression in a cell following contact with reference compounds: Protein Kinase C type I; type: cell-based; conditions: accession M13707; cell expressing estrogen receptor or estrogen related receptor, after contact with compound
Text: as §1, §2

D-binding protein = experiment: Differential gene expression in a cell following contact with reference compounds: D-binding protein; type: cell-based; conditions: accession J03179; cell expressing estrogen receptor or estrogen related receptor, after contact with compound
Text: as §1, §2

[1] = tested on: FE65 adaptor protein interacting with beta-amyloid precursor protein intracellular domain; experiment: Differential gene expression in a cell following contact with reference compounds: FE65; type: cell-based; conditions: accession X60469; cell expressing estrogen receptor or estrogen related receptor, after contact with compound
Text: as §1, §2

hot flash symptoms = conditions: cited from earlier work
N27 = experiment: Differential gene expression in a cell following contact with reference compounds: N27; type: cell-based; conditions: accession AI014169; cell expressing estrogen receptor or estrogen related receptor, after contact with compound
Text: as §1, §2

[2] = tested on: HMG-box containing protein 1; experiment: Differential gene expression in a cell following contact with reference compounds: HBP1; type: cell-based; conditions: accession U09551; cell expressing estrogen receptor or estrogen related receptor, after contact with compound
Text: as §1, §2

[3] = tested on: Multi Drug Resistance Gene; experiment: Differential gene expression in a cell following contact with reference compounds: Multi Drug Resistance Gene; type: cell-based; conditions: accession M81855; cell expressing estrogen receptor or estrogen related receptor, after contact with compound
Text: as §1, §2

Type II Hexokinase = experiment: Differential gene expression in a cell following contact with reference compounds: Type II Hexokinase; type: cell-based; conditions: accession D26393; cell expressing estrogen receptor or estrogen related receptor, after contact with compound
Text: as §1, §2

Calpain = experiment: Differential gene expression in a cell following contact with reference compounds: Calpain; type: cell-based; conditions: accession D14478; cell expressing estrogen receptor or estrogen related receptor, after contact with compound
Text: as §1, §2

Interleukin-18 = experiment: Differential gene expression in a cell following contact with reference compounds: Interleukin-18; type: cell-based; conditions: accession AJ222813; cell expressing estrogen receptor or estrogen related receptor, after contact with compound
Text: as §1, §2

EST208064 = experiment: Differential gene expression in a cell following contact with reference compounds: EST208064; type: cell-based; conditions: accession AI013389; cell expressing estrogen receptor or estrogen related receptor, after contact with compound
Text: as §1, §2

Parvalbumin = experiment: Differential gene expression in a cell following contact with reference compounds: Parvalbumin; type: cell-based; conditions: accession AF022935; cell expressing estrogen receptor or estrogen related receptor, after contact with compound
Text: as §1, §2

ARL gene 4 = experiment: Differential gene expression in a cell following contact with reference compounds: ARL gene 4; type: cell-based; conditions: accession X77235; cell expressing estrogen receptor or estrogen related receptor, after contact with compound
Text: as §1, §2

EST196325 = experiment: Differential gene expression in a cell following contact with reference compounds: EST196325; type: cell-based; conditions: accession AA892522; cell expressing estrogen receptor or estrogen related receptor, after contact with compound
Text: as §1, §2

[4] = tested on: Interleukin-1 β-converting enzyme-related protease CPP32; experiment: Differential gene expression in a cell following contact with reference compounds: CPP32; type: cell-based; conditions: accession U84410; cell expressing estrogen receptor or estrogen related receptor, after contact with compound
Text: as §1, §2

[5] = tested on: Argininosuccinate Synthetase; experiment: Differential gene expression in a cell following contact with reference compounds: Argininosuccinate Synthetase; type: cell-based; conditions: accession X12459; cell expressing estrogen receptor or estrogen related receptor, after contact with compound
Text: as §1, §2

[6] = tested on: Protein Tyrosine Phosphatase BAD2; experiment: Differential gene expression in a cell following contact with reference compounds: BAD2; type: cell-based; conditions: accession U02553; cell expressing estrogen receptor or estrogen related receptor, after contact with compound
Text: as §1, §2

[7] = tested on: Ribonucleoside Reductase Nuclear Receptor; experiment: Differential gene expression in a cell following contact with reference compounds: RNR-1; type: cell-based; conditions: accession L08595; cell expressing estrogen receptor or estrogen related receptor, after contact with compound
Text: as §1, §2

Activin Beta E = experiment: Differential gene expression in a cell following contact with reference compounds: Activin Beta E; type: cell-based; conditions: accession AF089825; cell expressing estrogen receptor or estrogen related receptor, after contact with compound
Text: as §1, §2

Prolactin = experiment: Differential gene expression in a cell following contact with reference compounds: Prolactin; type: cell-based; conditions: accession AI175539; cell expressing estrogen receptor or estrogen related receptor, after contact with compound
Text: as §1, §2

2-alpha-1 globin = experiment: Differential gene expression in a cell following contact with reference compounds: 2-alpha-1 globin; type: cell-based; conditions: accession X56325; cell expressing estrogen receptor or estrogen related receptor, after contact with compound
Text: as §1, §2

O=C(c1ccc(OCCN2CCCCC2)cc1)c1c(-c2ccc(O)cc2)sc2cc(O)ccc12 [Raloxifene, raloxifene]
Effect on Expression of Annexin 1 (EST 21795) (Annexin 1): Upregulated
Effect on Expression of Protein Kinase C type I (PKC type I) (Protein Kinase C type I): Upregulated
Effect on Expression of D-binding protein (D-binding protein): Upregulated
Effect on Expression of FE65 adaptor protein interacting with beta-amyloid precursor protein intracellular domain (FE65) [1]: Upregulated
subjects experiencing hot flash symptoms of sufficient severity to discontinue therapy (hot flash symptoms; administered in the treatment of osteoporosis): approximately 11%
Effect on Expression of N27 (EST 207724) (N27): Upregulated
Effect on Expression of HMG-box containing protein 1 (HBP1) [2]: Upregulated

C#C[C@]1(O)CC[C@H]2[C@@H]3[C@H](C)CC4=C(CCC(=O)C4)[C@H]3CC[C@@]21C [Tibolone, tibolone]
Effect on Expression of Multi Drug Resistance Gene (MDR) [3]: Upregulated
Effect on Expression of Type II Hexokinase (HKII) (Type II Hexokinase): Upregulated
Effect on Expression of Calpain (Calpain): Upregulated
Effect on Expression of Interleukin-18 (IL-18) (Interleukin-18): Upregulated
Effect on Expression of EST208064 (EST208064): Upregulated
Effect on Expression of Parvalbumin (Parvalbumin): Upregulated
Effect on Expression of ARL gene 4 (ARL gene 4): Upregulated
Effect on Expression of EST196325 (EST196325): Upregulated
Effect on Expression of Interleukin-1 β-converting enzyme-related protease CPP32 [4]: Upregulated
Effect on Expression of Argininosuccinate Synthetase [5]: Upregulated
Effect on Expression of Protein Tyrosine Phosphatase BAD2 [6]: Upregulated
Effect on Expression of Ribonucleoside Reductase Nuclear Receptor (RNR-1) [7]: Upregulated
Effect on Expression of Activin Beta E (Activin Beta E): Upregulated
Effect on Expression of Prolactin (Prolactin): Upregulated
Effect on Expression of 2-alpha-1 globin (2-alpha-1 globin): Upregulated

4-hydroxy tamoxifen
Effect on Expression of Annexin 1 (EST 21795) (Annexin 1): Upregulated
Effect on Expression of Type II Hexokinase (HKII) (Type II Hexokinase): downregulation
Effect on Expression of Protein Kinase C type I (PKC type I) (Protein Kinase C type I): Upregulated
Effect on Expression of D-binding protein (D-binding protein): Upregulated
Effect on Expression of Protein Tyrosine Phosphatase BAD2 [6]: downregulation
known effect on the incidence of hot flash symptoms (hot flash symptoms; when administered to a subject): increasing effect on hot flash symptoms; also recorded: increase the incidence of hot flash symptoms
Effect on Expression of N27 (EST 207724) (N27): Upregulated
Effect on Expression of HMG-box containing protein 1 (HBP1) [2]: Upregulated
